pEC50: −log10 of the molar value. Bridge positions count the residues as written; N and C are the ends. Square brackets hold non-standard residues; d marks the D form. Peptide text beside a SMILES is read from it. Hyp = O=C(O)[C@@H]1C[C@@H](O)CN1; Cit = NC(=O)NCCC[C@H](N)C(=O)O
Assays:
hAMY3 receptor = molecular target: T1, hAMY3 receptor (Homo sapiens, UniProt O60896+P30988); test: cAMP assay for in vitro receptor activation, hAMY3-R; assay type: cell-based; details: cAMP assay, hAMY3 receptor; read-out: hAMY3R EC50
T1 sequence (P30988 25-474): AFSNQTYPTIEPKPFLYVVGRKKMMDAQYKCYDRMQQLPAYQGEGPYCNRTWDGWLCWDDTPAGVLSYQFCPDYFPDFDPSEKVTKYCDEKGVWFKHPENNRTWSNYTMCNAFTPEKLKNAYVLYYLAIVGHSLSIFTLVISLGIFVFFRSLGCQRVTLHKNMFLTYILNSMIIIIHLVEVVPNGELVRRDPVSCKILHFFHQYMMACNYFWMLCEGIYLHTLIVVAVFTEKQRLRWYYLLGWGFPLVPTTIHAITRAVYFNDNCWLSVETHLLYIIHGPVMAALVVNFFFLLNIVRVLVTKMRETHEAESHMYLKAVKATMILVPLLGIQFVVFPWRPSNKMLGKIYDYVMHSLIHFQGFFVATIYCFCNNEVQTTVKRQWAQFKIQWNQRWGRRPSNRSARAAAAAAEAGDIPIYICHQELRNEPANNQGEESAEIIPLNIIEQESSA
T1 sequence (O60896 24-148 partner): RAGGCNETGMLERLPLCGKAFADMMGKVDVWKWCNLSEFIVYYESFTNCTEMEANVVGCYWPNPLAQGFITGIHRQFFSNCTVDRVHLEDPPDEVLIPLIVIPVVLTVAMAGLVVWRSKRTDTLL
Summary of the method: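 Read-out is TR-FRET cAMP signal, recorded one hour after reagent addition, following 30 min room-temperature stimulation of stable hAMY3 cells with graded compound doses in casein/IBMX (0.5 mM) buffer.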

hAM1 receptor = hAM1 receptor (Homo sapiens, UniProt O60895+Q16602); test: cAMP assay for in vitro receptor activation, hAM1-R; assay type: cell-based; details: cAMP assay, hAM1 receptor; read-out: hAM1R EC50
Summary of the method: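 A subcloned monoclonal line stably expressing hAM1 receptor is thawed and plated at 8000 cells/well. The assay buffer is DPBS with 0.05% casein and 0.5 mM IBMX, and receptor activation is followed by cAMP levels.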

[1] = Physical stability of peptide analogues (Thioflavin T fibrillation); assay type: physicochemical; details: maximum ThT signal normalized between hAMY maximum and buffer background; 40° C., shaking, four days; pH 7 per table title
Summary of the method: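 Maximum ThT emission at 480 nm, after LOESS smoothing, is given as percent of the span from buffer background to hAMY. Conditions: 50 mM buffer at pH 4 or 7, 4 μM dye, 40 °C, repeated shaking, readings every 10 min for four days.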

hAM1 receptor, sequence (Q16602 23-461): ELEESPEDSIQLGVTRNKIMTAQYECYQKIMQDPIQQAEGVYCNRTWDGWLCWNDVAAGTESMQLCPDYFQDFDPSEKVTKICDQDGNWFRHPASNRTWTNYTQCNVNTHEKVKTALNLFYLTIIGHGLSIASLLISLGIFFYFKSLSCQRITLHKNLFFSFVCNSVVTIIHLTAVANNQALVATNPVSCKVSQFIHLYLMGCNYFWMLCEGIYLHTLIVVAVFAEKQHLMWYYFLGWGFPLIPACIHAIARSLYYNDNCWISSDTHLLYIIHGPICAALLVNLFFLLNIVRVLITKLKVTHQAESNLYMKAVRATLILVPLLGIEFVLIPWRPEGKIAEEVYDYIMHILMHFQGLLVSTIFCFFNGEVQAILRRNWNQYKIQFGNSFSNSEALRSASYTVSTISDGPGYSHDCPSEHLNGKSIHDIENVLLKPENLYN
hAM1 receptor, sequence (O60895 43-175 partner): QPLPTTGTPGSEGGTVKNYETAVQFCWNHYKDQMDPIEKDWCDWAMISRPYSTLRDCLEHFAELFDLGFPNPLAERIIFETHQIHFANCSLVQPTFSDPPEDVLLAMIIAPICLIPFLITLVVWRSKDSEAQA

Structure (SMILES)	pEC50 (hAMY3 receptor)	pEC50 (hAM1 receptor)	Max ThT signal (%) [1] [%]
CC[C@H](C)[C@H](NC(=O)[C@H](CCC(N)=O)NC(=O)[C@H](Cc1c[nH]cn1)NC(=O)[C@H](C)NC(=O)[C@H](CC(C)C)NC(=O)[C@H](CCCNC(=N)N)NC(=O)[C@H](CCC(N)=O)NC(=O)[C@@H](NC(=O)[C@@H](NC(=O)[C@@H]1CSSC[C@H](NC(=O)CN)C(=O)N[C@@H](CCCNC(=N)N)C(=O)N[C@@H](Cc2c[nH]c3ccccc23)C(=O)NCC(=O)N[C@@H]([C@@H](C)O)C(=O)N1)[C@@H](C)O)C(C)C)C(=O)N[C@@H](Cc1ccc(O)cc1)C(=O)N[C@@H](CCC(N)=O)C(=O)N[C@@H](Cc1ccccc1)C(=O)N[C@H](C(=O)N[C@@H](CC(=O)O)C(=O)N[C@@H](CCCCN)C(=O)N[C@@H](CC(=O)O)C(=O)N[C@@H](CCCCN)C(=O)N[C@@H](CC(=O)O)C(=O)N[C@@H](CC(N)=O)C(=O)N[C@H](C(=O)N[C@@H](C)C(=O)N1CCC[C@H]1C(=O)N[C@@H](CO)C(=O)N[C@@H](CO)C(=O)N[C@@H](CCCCN)C(=O)N[C@H](C(=O)N[C@@H](CO)C(=O)N1CCC[C@H]1C(=O)N[C@@H](CCC(N)=O)C(=O)N[C@H](C(=O)N1C[C@H](O)C[C@H]1C(N)=O)[C@@H](C)O)[C@@H](C)CC)C(C)C)[C@@H](C)O [compound 202] (H-GCRWGTCTVQRLAHQIYQFTDKDKDNVAPSSKISPQT[Hyp]-NH2; disulfide 2-7)	9.90	< 5.30	12.600
CC[C@H](C)[C@H](NC(=O)[C@H](CCC(N)=O)NC(=O)[C@H](CCC(=O)O)NC(=O)[C@H](C)NC(=O)[C@H](CC(C)C)NC(=O)[C@H](CCCNC(N)=O)NC(=O)[C@H](CCC(N)=O)NC(=O)[C@@H](NC(=O)[C@@H](NC(=O)[C@@H]1CSSC[C@H](NC(=O)[C@@H](N)CCCCN)C(=O)N[C@@H](CC(N)=O)C(=O)N[C@@H]([C@@H](C)O)C(=O)N[C@@H](C)C(=O)N[C@@H]([C@@H](C)O)C(=O)N1)[C@@H](C)O)C(C)C)C(=O)N[C@@H](Cc1ccc(O)cc1)C(=O)N[C@@H](CCC(N)=O)C(=O)N[C@@H](Cc1ccccc1)C(=O)N[C@H](C(=O)N[C@@H](CC(=O)O)C(=O)N[C@@H](CCCCN)C(=O)N[C@@H](CC(=O)O)C(=O)N[C@@H](CCCCN)C(=O)N[C@@H](CC(=O)O)C(=O)N[C@@H](CC(N)=O)C(=O)N[C@H](C(=O)N[C@@H](CO)C(=O)N1CCC[C@H]1C(=O)N1CCC[C@H]1C(=O)N[C@H](C(=O)N[C@@H](CC(N)=O)C(=O)N[C@H](C(=O)NCC(=O)N[C@@H](CO)C(=O)N[C@@H](CC(N)=O)C(=O)NCC(=O)N1C[C@H](O)C[C@H]1C(N)=O)C(C)C)[C@@H](C)O)C(C)C)[C@@H](C)O [compound 266] (H-KCNTATCTVQ[Cit]LAEQIYQFTDKDKDNVSPPTNVGSNG[Hyp]-NH2; disulfide 2-7; N-terminus assumed)	10.28	< 5.30	20.900
CC[C@H](C)[C@H](NC(=O)[C@H](CCC(N)=O)NC(=O)[C@H](Cc1c[nH]cn1)NC(=O)[C@H](C)NC(=O)[C@H](CC(C)C)NC(=O)[C@H](CCCNC(=N)N)NC(=O)[C@H](CCC(N)=O)NC(=O)[C@@H](NC(=O)[C@@H](NC(=O)[C@@H]1CSSC[C@H](NC(=O)[C@@H](N)CCCCN)C(=O)N[C@@H](CC(N)=O)C(=O)N[C@@H]([C@@H](C)O)C(=O)N[C@@H](C)C(=O)N[C@@H]([C@@H](C)O)C(=O)N1)[C@@H](C)O)C(C)C)C(=O)N[C@@H](Cc1ccc(O)cc1)C(=O)N[C@@H](CCC(N)=O)C(=O)N[C@H](C(=O)N[C@@H](CC(=O)O)C(=O)N[C@@H](CCCCN)C(=O)N[C@@H](CC(=O)O)C(=O)N[C@@H](CCCCN)C(=O)N[C@@H](CC(=O)O)C(=O)N[C@@H](CC(N)=O)C(=O)N[C@H](C(=O)N[C@@H](C)C(=O)N1CCC[C@H]1C(=O)N1CCC[C@H]1C(=O)N[C@H](C(=O)N[C@@H](CC(N)=O)C(=O)N[C@H](C(=O)NCC(=O)N[C@@H](CO)C(=O)N[C@@H](CC(N)=O)C(=O)NCC(=O)N1C[C@H](O)C[C@H]1C(N)=O)C(C)C)[C@@H](C)O)C(C)C)[C@@H](C)O [compound 195] (H-KCNTATCTVQRLAHQIYQTDKDKDNVAPPTNVGSNG[Hyp]-NH2; disulfide 2-7; N-terminus assumed)	9.95	< 5.30	6.100

Stronger by pEC50 (hAMY3 receptor), values ahead:

pEC50 (hAMY3 receptor)	pEC50 (hAM1 receptor)	Max ThT signal (%) [1] [%]	Structure (SMILES)
10.68	< 5.30	29.000	CC[C@H](C)[C@H](NC(=O)[C@H](CCC(N)=O)NC(=O)[C@H](Cc1c[nH]cn1)NC(=O)[C@H](C)NC(=O)[C@H](CC(C)C)NC(=O)[C@H](CCCNC(N)=O)NC(=O)[C@H](CCC(N)=O)NC(=O)[C@@H](NC(=O)[C@@H](NC(=O)[C@@H]1CSSC[C@H](NC(=O)CN)C(=O)N[C@@H](CCCNC(=N)N)C(=O)N[C@@H]([C@@H](C)O)C(=O)NCC(=O)N[C@@H]([C@@H](C)O)C(=O)N1)[C@@H](C)O)C(C)C)C(=O)N[C@@H](Cc1ccc(O)cc1)C(=O)N[C@@H](CCC(N)=O)C(=O)N[C@@H](Cc1ccccc1)C(=O)N[C@H](C(=O)N[C@@H](CC(=O)O)C(=O)N[C@@H](CCCCN)C(=O)N[C@@H](CC(=O)O)C(=O)N[C@@H](CCCCN)C(=O)N[C@@H](CC(=O)O)C(=O)N[C@@H](CC(N)=O)C(=O)N[C@H](C(=O)N[C@@H](C)C(=O)N1CCC[C@H]1C(=O)N[C@@H](CCCNC(=N)N)C(=O)N[C@H](C(=O)N[C@@H](CC(N)=O)C(=O)N[C@H](C(=O)NCC(=O)N1CCC[C@H]1C(=O)N[C@@H](CCC(N)=O)C(=O)NCC(=O)N[C@@H](Cc1ccc(O)cc1)C(N)=O)C(C)C)[C@@H](C)O)C(C)C)[C@@H](C)O [compound 273] (H-GCRTGTCTVQ[Cit]LAHQIYQFTDKDKDNVAPRTNVGPQGY-NH2; disulfide 2-7; N-terminus assumed)
11.10	< 5.30	14.600	CC[C@H](C)[C@H](NC(=O)[C@H](CCC(N)=O)NC(=O)[C@H](Cc1c[nH]cn1)NC(=O)[C@H](C)NC(=O)[C@H](CC(C)C)NC(=O)[C@H](Cc1c[nH]c2ccccc12)NC(=O)[C@H](CCC(N)=O)NC(=O)[C@@H](NC(=O)[C@@H](NC(=O)[C@@H]1CSSC[C@H](NC(=O)[C@@H](N)CCCCN)C(=O)N[C@@H](CC(N)=O)C(=O)N[C@@H]([C@@H](C)O)C(=O)N[C@@H](C)C(=O)N[C@@H]([C@@H](C)O)C(=O)N1)[C@@H](C)O)C(C)C)C(=O)N[C@@H](Cc1ccc(O)cc1)C(=O)N[C@@H](CCC(N)=O)C(=O)N[C@@H](Cc1ccccc1)C(=O)N[C@H](C(=O)N[C@@H](CC(=O)O)C(=O)N[C@@H](CCCCN)C(=O)N[C@@H](CC(=O)O)C(=O)N[C@@H](CCCCN)C(=O)N[C@@H](CC(=O)O)C(=O)N[C@@H](CC(N)=O)C(=O)N[C@H](C(=O)N[C@@H](C)C(=O)N1CCC[C@H]1C(=O)N1CCC[C@H]1C(=O)N[C@H](C(=O)N[C@@H](CC(N)=O)C(=O)N[C@H](C(=O)NCC(=O)N[C@@H](CO)C(=O)N[C@@H](CC(N)=O)C(=O)NCC(=O)N1C[C@H](O)C[C@H]1C(N)=O)C(C)C)[C@@H](C)O)C(C)C)[C@@H](C)O [compound 330] (H-KCNTATCTVQWLAHQIYQFTDKDKDNVAPPTNVGSNG[Hyp]-NH2; disulfide 2-7; N-terminus assumed)
10.55	< 5.30	11.850	CC[C@H](C)[C@H](NC(=O)[C@H](CCC(N)=O)NC(=O)[C@H](Cc1c[nH]cn1)NC(=O)[C@H](C)NC(=O)[C@H](CC(C)C)NC(=O)[C@H](Cc1c[nH]c2ccccc12)NC(=O)[C@H](CCC(N)=O)NC(=O)[C@@H](NC(=O)[C@@H](NC(=O)[C@@H]1CSSC[C@H](NC(=O)[C@@H](N)CCCCN)C(=O)N[C@@H](CC(N)=O)C(=O)N[C@@H]([C@@H](C)O)C(=O)N[C@@H](C)C(=O)N[C@@H]([C@@H](C)O)C(=O)N1)[C@@H](C)O)C(C)C)C(=O)N[C@@H](Cc1ccc(O)cc1)C(=O)N[C@@H](CCC(N)=O)C(=O)N[C@@H](Cc1ccccc1)C(=O)N[C@H](C(=O)N[C@@H](CC(=O)O)C(=O)N[C@@H](CCCCN)C(=O)N[C@@H](CC(=O)O)C(=O)N[C@@H](CCCCN)C(=O)N[C@@H](CC(=O)O)C(=O)N[C@@H](C)C(=O)N[C@H](C(=O)N[C@@H](C)C(=O)N1CCC[C@H]1C(=O)N1CCC[C@H]1C(=O)N[C@H](C(=O)N[C@@H](CC(N)=O)C(=O)N[C@H](C(=O)NCC(=O)N[C@@H](CO)C(=O)N[C@@H](CC(N)=O)C(=O)NCC(=O)N1C[C@H](O)C[C@H]1C(N)=O)C(C)C)[C@@H](C)O)C(C)C)[C@@H](C)O [compound 324] (H-KCNTATCTVQWLAHQIYQFTDKDKDAVAPPTNVGSNG[Hyp]-NH2; disulfide 2-7; N-terminus assumed)

Source: patent US12139520B2 (priority 2020, dated 2024)
